Consider 30 molecules from PubChem BioAssay (NCI).

Values joined by “and” are separate entries in the source; they are usually repeats but may differ in a detail not shown here. Equal values may be shown once.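 How tested: cells in 96-well plates exposed to compound for 48 hours at five concentrations. GI50 is the concentration that inhibits growth by half. TGI is the concentration that stops growth completely.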

Holding throughout (test): NCI anticancer screen, dose series, 48 h
In test [1] the test system is HCT-116 colon.
Test [2] relates to OVCAR-4 ovarian.
Test [3] relates to HCT-15 colon.
The subject of test [4] is NCI-H522 lung.
In test [5] the test system is OVCAR-3 ovarian.
The subject of test [6] is HL-60(TB) leukemia.
Test [7] has as its system HOP-92 NSCLC.
Test [8] has as its system SNB-75 CNS.
In test [9] the test system is SK-MEL-5 melanoma.

Take `O=S1Nc2c(Cl)cc(Cl)c3c(Cl)cc(Cl)c(c23)N1`: the TGI in test [1] is more than 100 µM; in test [2], 91.2 µM; in [3], more than 100 µM; in test [4], 89.8 µM; in test [5], 96.2 µM; in test [6], more than 100 µM. Further, the figures for the TGI in test [7], in test [8] and in [9] were 51 µM, 55.3 µM and more than 100 µM, respectively.
As to `O=C1C(Cl)C(c2ccccc2O)N1n1cnc2ccccc2c1=O` (stereo unspecified), the TGI in [1] was more than 100 µM; in [2] it was more than 100 µM; in [3] it was 15.1 µM; in test [4] it was 93.8 µM; in test [5], more than 100 µM; in test [6], more than 100 µM. The TGI is 49.6 µM in test [8] and more than 100 µM in test [9].
Consider `CC1=NN(C(=O)c2ccc([N+](=O)[O-])cc2)C(=O)C1N=Nc1ccccc1C(=O)O` (stereo unspecified), for which the TGI is more than 100 µM in test [1]; more than 100 µM in test [4]; more than 100 µM in test [5]; more than 100 µM in test [6]; 97.2 µM in [7]; more than 100 µM in test [8]. Besides, in test [9], the TGI is more than 100 µM.
Turning to `O=c1c2cccc3cccc(c4n1CCN=4)c32`, the TGI in test [1], in test [2], in test [3], in test [4], in [5] and in test [6] was more than 100 µM throughout. Also, the TGI in test [7], in test [8] and in test [9] was more than 100 µM in each case.
As for `CSc1n[n+]2c(s1)SCCC2`, the TGI in [1], in test [2], in [4], in test [5], in [6] and in test [7] was more than 100 µM throughout. Moreover, the TGI in [8] and in test [9] was more than 100 µM each time.
Regarding `O=c1[nH]c2cc(Cl)ccc2nc1/C(=N\O)C(O)c1ccc([N+](=O)[O-])cc1` (stereo unspecified), the TGI in test [1], in [2], in test [3], in test [6], in test [8] and in [9] was more than 100 µM in each case.
With `O=C(Nc1cccc(O)c1)C(=O)C(C(=O)c1ccc(Cl)c(Cl)c1)C1OC(=O)c2ccccc21` (stereo unspecified), the TGI in test [1] was 48.2 µM; in test [2], 36.7 µM; in test [3], 35 µM; in test [4], 21.8 µM; in [6], 36.5 µM; in test [7], 53.8 µM. Also, the figures for the TGI in test [8] and in test [9] were 71.4 µM and 37.6 µM, respectively.
On to `Cc1c(C(=O)/C=C/c2ccccc2O)c(=O)n(-c2ccccc2)n1C`, for which the TGI in [1] was 34.6 µM; in test [3], 60.5 µM; in [4], 47.5 µM; in test [5], more than 100 µM; in [7], 64.6 µM; in [8], more than 100 µM. The same molecule had a TGI in test [9] of 28.6 µM.
Regarding `COC(=O)C(Cc1nc2ccccc2[nH]c1=O)C(=O)C(=O)Nc1ccc([N+](=O)[O-])cc1[N+](=O)[O-]` (stereo unspecified), the TGI in test [1] was 46.5 µM; in test [2] it was 64.1 µM; in [3], 34.5 µM; in [4] it was 20.8 µM; in [5], 30.5 µM; in test [6], 66.5 µM. The TGI is 39.3 µM in [8] and 33.1 µM in test [9].
Take `CC(C)(C)C1CCC2c3c([nH]c4ccccc34)C3C(=O)N(c4ccccc4)C(=O)C3C2C1` (stereo unspecified): the TGI in test [2] is 5.36 µM; in test [3], more than 100 µM; in test [5], 19.1 µM; in test [6], 30.6 µM; in [8], 6.04 µM.
As for `Cn1c(=O)c2nc(-c3ccc(Cl)cc3)oc2n(C)c1=O`, the TGI in test [1], in [2], in test [3], in test [4], in test [5] and in test [6] was more than 100 µM each time. Further, the TGI in test [7], in test [8] and in test [9] was more than 100 µM each time.
With `CC(=O)[CH-]C(=O)c1ccccc1.CC(=O)[CH-]C(=O)c1ccccc1.CCOCC[O-].CCOCC[O-].[Ti+4]`, the GI50 was 17.3 µM in test [1]; 31.9 µM in [2]; 28.3 µM in [3]; 17 µM in test [4]; 21.6 µM in test [5]; 13.8 µM in [6]. The GI50 in test [8] was 16.6 µM; in test [9], 22.5 µM. Besides, the TGI was 35.6 µM in test [1]; more than 100 µM in test [2]; 91.9 µM in [3]; 36.5 µM in test [4]; more than 100 µM in test [5]; 45.4 µM in test [6]. Also, the TGI was 43.8 µM in test [8] and 53.3 µM in test [9].
For `CN(C)c1nc(=Nc2cccc(Cl)c2)ss1`, the TGI was found to be 24.2 µM in test [1]; 29.8 µM in [2]; 27.9 µM in [3]; 15 µM in test [4]; 23 µM in test [6]; 49.4 µM in test [7]. In addition, the results for the TGI in test [8] and in [9] were 66.3 µM and more than 100 µM, respectively.
For `CCOC(=O)C(C)(C)Oc1ccc(/C=C/C(=O)c2ccc(Cl)cc2)cc1`, the TGI in test [1] was 31.5 µM; in test [2], 32.9 µM; in [3] it was 34.3 µM; in test [5] it was 30.4 µM; in [6], more than 100 µM; in test [8], 32.6 µM. The molecule further registered a TGI in test [9] of 28.3 µM.
As to `CC/C(CC(=O)CCC(=O)Nc1ccccc1[N+](=O)[O-])=N/NC(=O)C[n+]1ccccc1`, the TGI in test [1], in [2], in test [3], in [4], in test [5] and in test [6] was more than 100 µM in each case. Further, the TGI in test [7], in test [8] and in test [9] was more than 100 µM each time.
As for `CO[C@H](C(=O)[C@@H](O)[C@@H](C)O)[C@@H]1Cc2cc3cc(OC4CC(OC5CC(O)C(O)C(C)O5)C(O)C(C)O4)c(C)c(O)c3c(O)c2C(=O)[C@H]1OC1CC(OC2CC(OC3CC(C)(O)C(O)C(C)O3)C(O)C(C)O2)C(O)C(C)O1` (stereo partly specified), the GI50 in test [1] is 0.0194 µg/mL and 0.0116 µg/mL; in test [2] it was 0.0389 µg/mL and 0.0236 µg/mL; in test [3] it was 0.286 µg/mL and 0.843 µg/mL; in test [4] it was 0.0143 µg/mL and 0.0124 µg/mL; in [5] it was 0.0235 µg/mL and 0.0222 µg/mL; in test [6] it was 0.05 µg/mL and 0.0761 µg/mL. Moreover, the GI50 was 0.0278 µg/mL and 0.016 µg/mL in test [7]; 0.0141 µg/mL and 0.0224 µg/mL in [8]; 0.0199 µg/mL in [9].
Regarding `CN1C(=O)C(=O)c2cc3c(c4c2c1cc1ccccc14)OCO3`, the TGI in test [1], in test [2], in [3], in [4], in [5] and in test [6] was more than 100 µM each time. In addition, the TGI in test [7], in test [8] and in test [9] was more than 100 µM each time.
On to `COC1=CC(=O)C2C(C1=O)C(c1ccccc1)[C@H]2C` (stereo partly specified), for which the TGI is 35.9 µM in test [3]; more than 100 µM in test [5]; more than 100 µM in test [6]; 49.4 µM in [7]; more than 100 µM in [8]; more than 100 µM in test [9].
Regarding `C/C=C/CC(C)[C@@H](O)[C@H](NC)C(=O)O` (stereo partly specified), the TGI in test [2], in [3], in test [4], in [5], in test [6] and in test [7] was more than 100 µM in each case. Also, the TGI in test [8] and in [9] was more than 100 µM in each case.
Take `CCOc1cccc2ccc[n+](CC)c12`: the TGI in [1], in [2], in [4], in test [5], in test [7] and in test [8] was more than 100 µM throughout. The molecule also gave a TGI in test [9] of more than 100 µM.
Take `O=[N+]([O-])C1Cc2ccccc2OC1c1ccccc1` (stereo unspecified): the TGI in [1], in [2], in test [4], in test [5], in test [6] and in test [7] was more than 100 µM throughout. In addition, the results for the TGI in test [8] and in [9] were 55.5 µM and more than 100 µM, respectively.
As for `COc1cc(CNC2c3cc4c(cc3C(c3cc(OC)c(OC)c(OC)c3)[C@H]3C(=O)OCC23)OCO4)cc(OC)c1OC` (stereo partly specified), the TGI in test [1] was 0.707 µM; in [3], more than 100 µM; in [4], 0.262 µM; in test [5] it was more than 100 µM; in test [6] it was 0.515 µM; in [7], more than 100 µM. The values for the TGI in test [8] and in test [9] were more than 100 µM and 0.538 µM, respectively.
Consider `COc1ccc(OC)c(-c2cc(-c3ccc(Cl)cc3)nn2-c2ccc(S(=O)(=O)NC(C)=O)cc2)c1`, for which the GI50 is 2.84 µM in test [1]; 3.29 µM in test [3]; 32.4 µM in test [4]; 25.4 µM in [5]; 3.7 µM in test [6]; 10.2 µM in test [7]. Moreover, the GI50 in test [9] is 2.07 µM. Moreover, the TGI in test [1] is 11.2 µM; in test [3], 18.8 µM; in test [4], more than 100 µM; in test [5], 64.7 µM; in [6], 41.9 µM; in [7], 33.2 µM. The molecule further showed a TGI in test [9] of 15.5 µM.
On to `CC[N+]1(C)CCC(O)(c2ccc(OC)cc2)C(C(=O)c2ccc(OC)cc2)C1` (stereo unspecified), for which the TGI in test [1] is 28.1 µM; in [2] it was 51.2 µM; in test [3], 25.3 µM; in test [4] it was 3.89 µM; in [5], 22.1 µM; in [6] it was 8.9 µM. Also, the TGI was 6.79 µM in [7], 27.8 µM in test [8] and 29.5 µM in [9].
Regarding `CC(=O)OC1CC2C(C)(C)C(=O)C=C[C@]2(C)C2CCC3(C)C(=CC(=O)C3c3ccoc3)[C@]12C` (stereo partly specified), the TGI worked out at 24.9 µM in [1]; 50.5 µM in test [2]; 26.1 µM in test [3]; 25.8 µM in test [5]; 34.1 µM in [6]; 45.6 µM in test [7]. Also, the TGI in test [8] was found to be 36.1 µM; in [9], 26.4 µM.
`CN(C)C=C1C(Cl)=C(C=O)CC(C=O)=C1Cl`: the TGI in test [2] is 27.9 µM; in test [3], 11.9 µM; in test [4], 4.14 µM; in test [5] it was 27.7 µM; in test [6], 4.74 µM; in [7], 21.8 µM. Moreover, the TGI in test [8] was 29.5 µM; in test [9], 23.5 µM.
On to `CCc1cccc(CC)c1NC(=O)C1=C(C)NC(C)=C(C(=O)Nc2c(CC)cccc2CC)C1c1ccc([N+](=O)[O-])cc1`, for which the TGI in [1] worked out at 46.4 µM; in [2], 33.8 µM; in [4] it was 40.2 µM; in test [5], 96 µM; in test [6] it was 48.7 µM; in test [7] it was 39.6 µM. Further, the results for the TGI in test [8] and in [9] were more than 100 µM and 33 µM, respectively.
With `Cc1cc(Cl)ccc1NC(=O)C(=O)C(C(=O)c1ccc2ccccc2c1)C1OC(=O)c2ccccc21` (stereo unspecified), the TGI in test [1] came to 21.7 µM; in [2], 25.5 µM; in [3], 50.9 µM; in [4] it was 23.4 µM; in [5] it was 33.3 µM; in test [7], 34.5 µM. In addition, the TGI in test [8] stood at 49.2 µM; in [9], 26.9 µM.
Regarding `Cc1c(C(=O)/C=C/c2ccc(N(C)C)cc2)c(=O)n(-c2ccccc2)n1C`, the TGI in test [1], in test [3], in [4], in test [5] and in [7] was more than 100 µM throughout.
As for `Cc1cc(=O)oc2c(C)c(OCCCOc3ccc4c(C)cc(=O)oc4c3C)ccc12`, the TGI in test [1], in test [3], in test [4], in [5], in [6] and in test [7] was more than 100 µM in each case. This molecule returned a TGI in [9] of more than 100 µM.
